{"source": "patent US5670492A", "about": "“DC-89 derivatives” (priority 1994, dated 1997)", "key": {"[1]": {"system": "HeLaS3 cells", "assay": "Growth Inhibitory Effect Against HeLaS3 cells", "assay_type": "cell-based", "details": "Homo sapiens", "protocol": "HeLaS3 cells were suspended in MEM medium containing 10% calf serum and 2 mM glutamine to a concentration of 2.67×10^4 cells/mi. The cell suspension thus prepared was put into wells of a 24-well culture plate in an amount of 0.75 ml per well. After the cells were incubated in a CO2 incubator overnight at 37° C., Compound (I) which had been appropriately diluted with a culture medium was added to each well in an amount of 0.25 ml.\nThe cells were further incubated in the CO2 incubator for 72 hours, and the culture supernatant was removed. Then, the cells were dispersed in a solution of trypsin and EDTA and recovered. The number of cells was counted using a cell counter. The concentration (IC50) of Compound (I) at which the growth of the cells is inhibited by 50% was calculated by comparing the number of untreated cells with the number of the cells treated with Compound (I) at known concentrations."}, "[2]": {"system": "Sarcoma 180 tumor", "assay": "Therapeutic Effect Against Sarcoma 180 Tumor", "assay_type": "in vivo, male ddY-strain mice", "details": "Mus musculus, Sarcoma-180, iv, 168 h, read-out: T/C", "protocol": "Five male ddY-strain mice each weighing 18-20 g were used for each group as test animals, and 5×10^5 Sarcoma 180 tumor cells were implanted at the axilla subcutaneously. One day after the implantation, 0.2 ml of a physiological saline containing Compound (I) at the concentration shown in Table 2 was intravenously administered to each mouse. T/C [T: average tumor volume (mm^3) of the group treated with the test compound, C: average tumor volume (mm^3) of the control group (to which […] of a physiological saline was intravenously administered)] was determined seven days after the implantation."}, "[3]": {"system": "ddY-strain male mice", "assay": "Acute Toxicity", "assay_type": "in vivo", "details": "i.v., mortality at 14 days after administration", "protocol": "Compound (I) was intravenously administered to ddY-strain male mice each weighing 20±1 g. MLD (minimum lethal dose) was determined by observing the mortality at 14 days after administration."}, "[4]": {"assay": "Test for Solubility in Water", "assay_type": "physicochemical", "details": "room temperature", "protocol": "A sample tube was charged with 0.7 mg of Compound (I), and 30 μl of water were added thereto at room temperature. The mixture was stirred, and the solubility in water was measured. When the compound was not dissolved, 30 μl of water was added thereto successively, and the mixture was stirred. The solubility in water was measured when the compound was dissolved."}, "[5]": {"details": "HeLa S3, 72 hours, read-out: IC50"}}, "note": "Like-named read-outs stand apart in the source and are kept apart here.", "data": [{"smiles": "COC(=O)c1c(C)[nH]c2c1C13CC1CN(C(=O)/C=C/c1ccc(OC)nc1)C3=CC2=O", "note": "(centres unmarked) [Compound 1]", "values": [{"measurement": "IC50", "setting": "[1]; [5]", "result": 0.42, "unit": "nM"}]}, {"smiles": "COC(=O)c1c(C)[nH]c2c(OC(=O)N3CCN(C)CC3)cc3c(c12)C(CBr)CN3C(=O)/C=C/c1ccc(OC)nc1", "note": "(centres unmarked) [Compound 3]", "values": [{"measurement": "IC50", "setting": "[1]; HeLa S3, 72 h", "result": 110, "unit": "nM"}, {"measurement": "response vs control in vivo at 1 mg/kg", "setting": "[2]", "result": 36, "unit": "%"}, {"measurement": "MLD (minimum lethal dose)", "setting": "[3]", "result": 1.0, "unit": "mg/kg"}, {"measurement": "solubility", "setting": "[4]", "result": "> 20", "unit": "mg/mL"}]}, {"smiles": "COC(=O)Oc1cc2c(c3c(C(=O)OC)c(C)[nH]c13)C(CBr)CN2C(=O)/C=C/c1ccc(OC)nc1", "note": "(centres unmarked) [Compound 4]", "values": [{"measurement": "IC50", "setting": "[1]; HeLa S3, 72 h", "result": 0.7, "unit": "nM"}, {"measurement": "response vs control in vivo at 0.5 mg/kg", "setting": "[2]", "result": 35, "unit": "%"}, {"measurement": "MLD (minimum lethal dose)", "setting": "[3]", "result": 0.50, "unit": "mg/kg"}]}, {"smiles": "COC(=O)c1c(C)[nH]c2c1C13CC1CN(C(=O)/C=C/c1cnc(OC)nc1)C3=CC2=O", "note": "(centres unmarked) [Compound 6]", "values": [{"measurement": "IC50", "setting": "[1]; [5]", "result": 0.9, "unit": "nM"}]}, {"smiles": "COC(=O)c1c(C)[nH]c2c(OC(=O)N3CCN(C)CC3)cc3c(c12)C(CBr)CN3C(=O)/C=C/c1cnc(OC)nc1", "note": "(centres unmarked) [Compound 8]", "values": [{"measurement": "IC50", "setting": "[1]; HeLa S3, 72 h", "result": 170, "unit": "nM"}, {"measurement": "response vs control in vivo at 2 mg/kg", "setting": "[2]", "result": 26, "unit": "%"}, {"measurement": "MLD (minimum lethal dose)", "setting": "[3]", "result": 4.0, "unit": "mg/kg"}, {"measurement": "solubility", "setting": "[4]", "result": "> 20", "unit": "mg/mL"}]}, {"smiles": "COC(=O)c1c(C)[nH]c2c(OC(C)=O)cc3c(c12)C(CBr)CN3C(=O)/C=C/c1cnc(OC)nc1", "note": "(centres unmarked) [Compound 11]", "values": [{"measurement": "IC50", "setting": "[1]; HeLa S3, 72 h", "result": 0.92, "unit": "nM"}, {"measurement": "response vs control in vivo at 1 mg/kg", "setting": "[2]", "result": 17, "unit": "%"}, {"measurement": "MLD (minimum lethal dose)", "setting": "[3]", "result": 1.0, "unit": "mg/kg"}]}, {"smiles": "COC(=O)c1c(C)[nH]c2c1C13CC1CN(C(=O)/C=C/c1ccc(OC)nn1)C3=CC2=O", "note": "(centres unmarked) [Compound 12]", "values": [{"measurement": "IC50", "setting": "[1]; [5]", "result": 0.28, "unit": "nM"}]}, {"smiles": "COC(=O)c1c(C)[nH]c2c(OC(=O)N3CCN(C)CC3)cc3c(c12)C(CBr)CN3C(=O)/C=C/c1ccc(OC)nn1", "note": "(centres unmarked) [Compound 14]", "values": [{"measurement": "IC50", "setting": "[1]; HeLa S3, 72 h", "result": 90, "unit": "nM"}, {"measurement": "response vs control in vivo at 1 mg/kg", "setting": "[2]", "result": 31, "unit": "%"}, {"measurement": "MLD (minimum lethal dose)", "setting": "[3]", "result": 0.50, "unit": "mg/kg"}, {"measurement": "solubility", "setting": "[4]", "result": "> 20", "unit": "mg/mL"}]}, {"smiles": "COC(=O)c1c(C)[nH]c2c(OC(=O)N3CCN(C)CC3)cc3c(c12)C(CBr)CN3C(=O)/C=C/c1ccc(OC)cn1", "note": "(centres unmarked) [Compound 17]", "values": [{"measurement": "solubility", "setting": "[4]", "result": "> 20", "unit": "mg/mL"}]}, {"smiles": "COC(=O)c1c(C)[nH]c2c1C13CC1CN(C(=O)COc1ccc(OC)cc1)C3=CC2=O", "note": "(centres unmarked) [Compound 18]", "values": [{"measurement": "IC50", "setting": "[1]; [5]", "result": 0.19, "unit": "nM"}]}, {"smiles": "COC(=O)c1c(C)[nH]c2c(OC(=O)N3CCN(C)CC3)cc3c(c12)C(CBr)CN3C(=O)COc1ccc(OC)cc1", "note": "(centres unmarked) [Compound 20]", "values": [{"measurement": "IC50", "setting": "[1]; HeLa S3, 72 h", "result": 94, "unit": "nM"}, {"measurement": "response vs control in vivo at 0.5 mg/kg", "setting": "[2]", "result": 20, "unit": "%"}, {"measurement": "MLD (minimum lethal dose)", "setting": "[3]", "result": 0.50, "unit": "mg/kg"}]}, {"smiles": "COC(=O)c1c(C)[nH]c2c1C13CC1CN(C(=O)COc1ccc(OC(F)(F)F)cc1)C3=CC2=O", "note": "(centres unmarked) [Compound 23]", "values": [{"measurement": "IC50", "setting": "[1]; [5]", "result": 1.6, "unit": "nM"}]}, {"smiles": "COC(=O)c1c(C)[nH]c2c(OC(=O)N3CCN(C)CC3)cc3c(c12)C(CBr)CN3C(=O)COc1ccc(OC(F)(F)F)cc1", "note": "(centres unmarked) [Compound 25]", "values": [{"measurement": "IC50", "setting": "[1]; HeLa S3, 72 h", "result": 1100, "unit": "nM"}, {"measurement": "response vs control in vivo at 2 mg/kg", "setting": "[2]", "result": 12, "unit": "%"}, {"measurement": "MLD (minimum lethal dose)", "setting": "[3]", "result": 4.0, "unit": "mg/kg"}, {"measurement": "solubility", "setting": "[4]", "result": 0.2, "unit": "mg/mL"}]}, {"smiles": "COC(=O)c1c(C)[nH]c2c1C13CC1CN(C(=O)/C=C/c1ccc(NC(=O)OC(C)(C)C)cc1)C3=CC2=O", "note": "(centres unmarked) [Compound 26]", "values": [{"measurement": "IC50", "setting": "[1]; [5]", "result": 0.56, "unit": "nM"}]}, {"smiles": "COC(=O)c1c(C)[nH]c2c1C13CC1CN(C(=O)/C=C/c1ccc(N(C)C)cc1)C3=CC2=O", "note": "(centres unmarked) [Compound 27]", "values": [{"measurement": "IC50", "setting": "[1]; [5]", "result": 1.6, "unit": "nM"}]}, {"smiles": "COC(=O)c1c(C)[nH]c2c1C13CC1CN(C(=O)/C=C/c1ccc(N)cc1)C3=CC2=O", "note": "(centres unmarked) [Compound 28]", "values": [{"measurement": "IC50", "setting": "[1]; [5]", "result": 2.6, "unit": "nM"}]}, {"smiles": "COC(=O)c1c(C)[nH]c2c1C13CC1CN(C(=O)/C=C/c1ccc(OC)c(OCCCN)c1)C3=CC2=O", "note": "(centres unmarked) [Compound 30]", "values": [{"measurement": "IC50", "setting": "[1]; [5]", "result": 1.4, "unit": "nM"}]}, {"smiles": "COC(=O)c1c(C)[nH]c2c(OC(=O)N3CCN(C)CC3)cc3c(c12)C(CBr)CN3C(=O)/C=C/c1ccc(OC)c(OCCCN)c1", "note": "(centres unmarked) [Compound 32]", "values": [{"measurement": "solubility", "setting": "[4]", "result": "> 20", "unit": "mg/mL"}]}, {"smiles": "COC(=O)COc1cc(/C=C/C(=O)N2CC3CC34C2=CC(=O)c2[nH]c(C)c(C(=O)OC)c24)ccc1OC", "note": "(centres unmarked) [Compound 34]", "values": [{"measurement": "IC50", "setting": "[1]; [5]", "result": 0.86, "unit": "nM"}]}, {"smiles": "COC(=O)c1c(C)[nH]c2c1C13CC1CN(C(=O)/C=C/c1ccc(OC)c(N)c1)C3=CC2=O", "note": "(centres unmarked) [Compound 37]", "values": [{"measurement": "IC50", "setting": "[1]; [5]", "result": 0.53, "unit": "nM"}]}]}
